In patent US20240131168A1, “NAPHTHALENE RING-CONTAINING COMPOUND, PHARMACEUTICAL COMPOSITION CONTAINING SAME, AND USE THEREOF” (JIANGSU YAHONG MEDITECH CO., LTD., priority 2021, published 2024):

Experiments:
Type in all cases: cell-based
[1] = system: MCF-7; assay: CellTiter-Glo cell proliferation inhibition, MCF-7 (Effect Example 2); conditions: Homo sapiens, MCF7, 144 h, MCF-7 (CTG), 6 days, starting concentration 10 μM; for inhibition at up to 10 µM: read-out: IH % max (maximum inhibition percentage)
Description: (§1) 1. Cell line • (1) Breast cancer cell lines and their culture media: • MCF-7 (ATCC; Cat. No.: HTB-22), a Luminal A breast cancer cell; • TamR-MCF-7 (ATCC; Cat. No.: CRL-3435), a breast cancer cell; • MCF-7 ER^D538G: a Luminal A breast cancer cell obtained by constructing MCF-7 (ATCC; Cat. No.: HTB-22) using CRISPR-Cas9 gene editing technology; • MCF-7 ER^Y537S: a Luminal A breast cancer cell obtained by constructing MCF-7 (ATCC; Cat. No.: HTB-22) using CRISPR-Cas9 gene editing technology; • MDA-MB-231: (manufacturer: Nanjing CoBioer Biosciences Co., Ltd.), a triple-negative breast cancer cell; • MDA-MB-468: (manufacturer: Nanjing CoBioer Biosciences Co., Ltd.), a triple-negative breast cancer cell.
(§2) Herein, the culture medium of MCF-7, TamR-MCF-7, MCF-7 ER^D538G, and MCF-7 ER^Y537S was EMEM; • the culture medium of MDA-MB-231 and MDA-MB-468 was DMEM.
(§3) 2. Reagents • Culture medium EMEM (Gibco, 1964507) • Culture medium DMEM (Gibco, 12430-054) • Fetal bovine serum (Gibco, 10091148) • Penicillin-streptomycin double antibody (Gibco, S110JV) • DPBS (Gibco, 14190-144) • CellTiter-Glo® assay kit (Promega, G7573) • Trypsin (0.25%) (Gibco, 25200-056) • DMSO (Sigma, D2650)
(§4) 3. Instruments • Biosafety cabinet (AIRTECH, BSC-1300A II) • Automated cell counter (Life Technologies, countess II) • Multifunctional microplate reader (Biotek, H1FM) • Orbital shaker (Hangzhou Allsheng Instruments Co., Ltd., OS-100) • XLFIT 5.3 (Inforstack Shanghai Co., Ltd.)
(§5) For this test method, the following experiments were performed in a biosafety cabinet, with the specific steps as follows: • (1) Cells were inoculated in a 96-well plate. One day later, the previous culture medium was poured off, 5 mL of DPBS was added to wash the cells, and then DPBS was pipetted and discarded. An appropriate amount of trypsin was then added. The plate was digested in a 37° C., 5% CO2 cell incubator for about 2 to 5 minutes and then taken out. Anew corresponding culture medium was added, and pipetted up and down to resuspend the cells evenly. The cells were then counted using an automated cell counter. • (2) Each cell was inoculated in columns 1 to 11 of a 96-well plate (Corning, Cat. No.: 3610) at a density of 1,000 or 2,000 cells per well in 100 μL of culture medium, and 100 μL of the corresponding culture medium without cells was added to the wells in column 12. The plate was then placed in a 37° C., 5% CO2 incubator for 24 hours. • (3) The compound of the present disclosure and the control drug fulvestrant (Selleck; Cat. No.: S1191) were then 4-fold serially diluted to 10 dose points starting at 10 μM. 10 μL of the serially diluted compound was pipetted and added to 100 μL of cells in columns 1 to 10, and 10 μL of the corresponding culture medium containing 0.33 v % DMSO was added to both columns 11 and 12. The plate was incubated in a 37° C., 5% CO2 incubator for 6 days or 72 hours (Note: column 11 was used as a MAX well with cells but without compound; column 12 was used as a MIN well without cells […]). • (4) The cell viability detection reagent in the CellTiter-Glo® assay kit was then added to the 96-well plate at 50 μL per well according to the instructions, and shaken on an orbital shaker in the dark for 5 to 10 minutes. The cell viability was then measured using a multifunctional microplate reader. Finally, the inhibition of cell proliferation by the compound of the present disclosure was plotted by XLFIT software, and the IC50 value (half inhibitory concentration) and the IH % max (maximum inhibition percentage) of the compound of the present disclosure were calculated.

[2] = system: MCF-7 ER^D538G; assay: CellTiter-Glo cell proliferation inhibition, MCF-7 ER^D538G; conditions: Homo sapiens, MCF7, 144 h; MCF-7 ER^D538G (CTG), 6 days, starting concentration 10 μM; read-out: IH % max (maximum inhibition percentage)
Description: as §1, §2, §3, §4, §5

[3] = system: MDA-MB-468; assay: CellTiter-Glo cell proliferation inhibition, MDA-MB-468; conditions: Homo sapiens, 144 h, MDA-MB-468 (CTG), 6 days, starting concentration 10 μM; for inhibition at up to 10 µM: read-out: IH % max (maximum inhibition percentage)
Description: as §1, §2, §3, §4, §5
Compounds D64 to D69 were tested for MDA-MB-231 (CTG) and MDA-MB-468 (CTG) with an incubation time of 72 hours in the incubator.

`CS(=O)(=O)c1ccc(-c2ccc3cc(O)ccc3c2Oc2ccc(OCCOCCOCCN3CCN(c4cccc5c4CN(C4CCC(=O)NC4=O)C5=O)CC3)cc2)cc1` (stereo not shown) [Compound D37, 3-(4-(4-(2-(2-(2-(4-((6-hydroxy-2-(4-(methylsulfonyl)phenyl)naphthalen-1-yl)oxy)phenoxy)ethoxy)ethoxy)ethyl)piperazin-1-yl)-1-oxoisoindolin-2-yl)piperidine-2,6-dione] showed an inhibition at up to 10 µM [1] of 49% and an inhibition at up to 10 µM [2] of 52%.
In the case of `CS(=O)(=O)c1ccc(-c2ccc3cc(O)ccc3c2Oc2ccc(OCCN3CCN(c4cccc5c4CN(C4CCC(=O)NC4=O)C5=O)CC3)cc2)cc1` (stereo not shown) [Compound D53, 3-(4-(4-(2-(4-((6-hydroxy-2-(4-(methylsulfonyl)phenyl)naphthalen-1-yl)oxy)phenoxy)ethyl)piperazin-1-yl)-1-oxoisoindolin-2-yl)piperidine-2,6-dione], the inhibition at up to 10 µM [3] is reported as 99.2% and the inhibition at up to 10 µM [1] is reported as 49.7%.
`CCN(CCOc1ccc(Oc2c(-c3ccc(S(C)(=O)=O)cc3)ccc3cc(O)ccc23)cc1)CCN1CCN(c2ccc3c(c2)C(=O)N(C2CCC(=O)NC2=O)C3)CC1` (stereo not shown) [Compound D56] showed an inhibition at up to 10 µM [1] of 55.6%.
In the case of `CCN(CCOCCOCC(=O)N1CCN(c2ccc3c(c2)C(=O)N(C2CCC(=O)NC2=O)C3)CC1)CCOc1ccc(Oc2c(-c3ccc(S(C)(=O)=O)cc3)ccc3cc(O)ccc23)cc1` (stereo not shown) [Compound D44], the inhibition at up to 10 µM [1] is reported as 33% and the inhibition at up to 10 µM [2] is reported as 52%.
`CCN(CCOCCOCC(=O)N1CCN(c2ccc3c(c2)CN(C2CCC(=O)NC2=O)C3=O)CC1)CCOc1ccc(Oc2c(-c3ccc(S(C)(=O)=O)cc3)ccc3cc(O)ccc23)cc1` (stereo not shown) [Compound D46] showed an inhibition at up to 10 µM [1] of 34% and an inhibition at up to 10 µM [2] of 46%.
`CCN(CCOCCN1CCN(c2ccc3c(c2)C(=O)N(C2CCC(=O)NC2=O)C3)CC1)CCOc1ccc(Oc2c(-c3ccc(S(C)(=O)=O)cc3)ccc3cc(O)ccc23)cc1` (stereo not shown) [Compound D51] showed an IC50 [1] of 143 nM and an inhibition at up to 10 µM [1] of 52.9%.
Compound `CS(=O)(=O)c1ccc(-c2ccc3cc(O)ccc3c2Oc2ccc(OCC(=O)N3CCN(c4ccc5c(c4)CN(C4CCC(=O)NC4=O)C5=O)CC3)cc2)cc1` (stereo not shown) [Compound D54, 3-(5-(4-(2-(4-((6-hydroxy-2-(4-(methylsulfonyl)phenyl)naphthalen-1-yl)oxy)phenoxy)acetyl)piperazin-1-yl)-1-oxoisoindolin-2-yl)piperidine-2,6-dione] has an IC50 [1] of 13.2 nM and an inhibition at up to 10 µM [1] of 96.5%.
`CS(=O)(=O)c1ccc(-c2ccc3cc(O)ccc3c2Oc2ccc(OCCOCCOCCOCCNc3cccc4c3CN(C3CCC(=O)NC3=O)C4=O)cc2)cc1` (stereo not shown) [Compound D20, 3-(4-((2-(2-(2-(2-(4-((6-hydroxy-2-(4-(methylsulfonyl)phenyl)naphthalen-1-yl)oxy)phenoxy)ethoxy)ethoxy)ethoxy)ethyl)amino)-1-oxoisoindolin-2-yl)piperidine-2,6-dione] gave an inhibition at up to 10 µM [1] of 38%.
`COc1ccc2c(Oc3ccc(OCCN4CCN(c5ccc6c(c5)CN(C5CCC(=O)NC5=O)C6=O)CC4)cc3)c(-c3ccc(S(C)(=O)=O)cc3)ccc2c1` (stereo not shown) [Compound D3, 3-(5-(4-(2-(4-((6-methoxy-2-(4-(methylsulfonyl)phenyl)naphthalen-1-yl)oxy)phenoxy)ethyl)piperazin-1-yl)-1-oxoisoindolin-2-yl)piperidine-2,6-dione] was tested, and the IC50 [3] was 18.6 nM, the inhibition at up to 10 µM [3] was 73% and the inhibition at up to 10 µM [1] was 30%.
With `CCN(CCOCC(=O)N1CCN(c2ccc3c(c2)C(=O)N(C2CCC(=O)NC2=O)C3)CC1)CCOc1ccc(Oc2c(-c3ccc(S(C)(=O)=O)cc3)ccc3cc(O)ccc23)cc1` (stereo not shown) [Compound D50] the inhibition at up to 10 µM [1] was 48.4%.
`CCN(CCCCCCCCCc1ccc2c(c1)C(=O)N(C1CCC(=O)NC1=O)C2=O)CCOc1ccc(Oc2c(-c3ccc(S(C)(=O)=O)cc3)ccc3cc(O)ccc23)cc1` (stereo not shown) [Compound D63, 2-(2,6-dioxopiperidin-3-yl)-5-(9-(ethyl(2-(4-((6-hydroxy-2-(4-(methylsulfonyl)phenyl)naphthalen-1-yl)oxy)phenoxy)ethyl)amino)nonyl)isoindoline-1,3-dione] gave an IC50 [1] of 153 nM and an inhibition at up to 10 µM [1] of 98.9%.
Work on `CS(=O)(=O)c1ccc(-c2ccc3cc(O)ccc3c2Oc2ccc(OCCOCCN3CCN(c4ccc5c(c4)C(=O)N(C4CCC(=O)NC4=O)C5)CC3)cc2)cc1` (stereo not shown) [Compound D43, 3-(6-(4-(2-(2-(4-((6-hydroxy-2-(4-(methylsulfonyl)phenyl)naphthalen-1-yl)oxy)phenoxy)ethoxy)ethyl)piperazin-1-yl)-1-oxoisoindolin-2-yl)piperidine-2,6-dione] yielded an inhibition at up to 10 µM [1] of 36% and an inhibition at up to 10 µM [2] of 36%.
In the case of `CCN(CCOCCOCCOCCNc1ccc2c(c1)C(=O)N(C1CCC(=O)NC1=O)C2=O)CCOc1ccc(Oc2c(-c3ccc(S(C)(=O)=O)cc3)ccc3cc(O)ccc23)cc1` (stereo not shown) [Compound D62, 2-(2,6-dioxopiperidin-3-yl)-5-((3-ethyl-1-(4-((6-hydroxy-2-(4-(methylsulfonyl)phenyl)naphthalen-1-yl)oxy)phenoxy)-6,9,12-trioxa-3-azatetradecan-14-yl)amino)isoindoline-1,3-dione], the inhibition at up to 10 µM [3] is reported as 98.5% and the inhibition at up to 10 µM [1] is reported as 45.1%.
`CS(=O)(=O)c1ccc(-c2ccc3cc(O)ccc3c2Oc2ccc(OCCOCCOCCOCCNc3ccc4c(c3)C(=O)N(C3CCC(=O)NC3=O)C4)cc2)cc1` (stereo not shown) [Compound D29] showed an inhibition at up to 10 µM [1] of 47% and an inhibition at up to 10 µM [2] of 47%.
For `CS(=O)(=O)c1ccc(-c2ccc3cc(O)ccc3c2Oc2ccc(OCCCCN3CCN(c4ccc5c(c4)C(=O)N(C4CCC(=O)NC4=O)C5=O)CC3)cc2)cc1` (stereo not shown) [Compound D13, 2-(2,6-dioxopiperidin-3-yl)-5-(4-(4-(4-((6-hydroxy-2-(4-(methylsulfonyl)phenyl)naphthalen-1-yl)oxy)phenoxy)butyl)piperazin-1-yl)isoindoline-1,3-dione], the inhibition at up to 10 µM [1] was 34%.
With `COc1ccc2c(Oc3ccc(OCCCCN4CCN(c5ccc6c(c5)CN(C5CCC(=O)NC5=O)C6=O)CC4)cc3)c(-c3ccc(S(C)(=O)=O)cc3)ccc2c1` (stereo not shown) [Compound D58, 3-(5-(4-(4-(4-((6-methoxy-2-(4-(methylsulfonyl)phenyl)naphthalen-1-yl)oxy)phenoxy)butyl)piperazin-1-yl)-1-oxoisoindolin-2-yl)piperidine-2,6-dione] the inhibition at up to 10 µM [1] was 39%.
Compound `CS(=O)(=O)c1ccc(-c2ccc3cc(O)ccc3c2Oc2ccc(OCCOCCOCCOCCOc3cccc4c3CN(C3CCC(=O)NC3=O)C4=O)cc2)cc1` (stereo not shown) [Compound D14, 3-(4-(2-(2-(2-(2-(4-((6-hydroxy-2-(4-(methylsulfonyl)phenyl)naphthalen-1-yl)oxy)phenoxy)ethoxy)ethoxy)ethoxy)ethoxy)-1-oxoisoindolin-2-yl)piperidine-2,6-dione] has an inhibition at up to 10 µM [3] of 32%, an inhibition at up to 10 µM [1] of 42% and an inhibition at up to 10 µM [2] of 40%.
